Data as given in patent publication US20050130903A1, “Therapeutic agents and methods of use thereof for the modulation of angiogenesis” (priority 2000, published 2005).
Read-outs that look alike come from different tables or passages of the source.

Experiments:
[1] = tested on: collagen-induced arthritis; test: collagen-induced arthritis model; assay type: in vivo, Louvain rats; conditions: for mean radiological evaluation score: control group 2.2
Method: The efficacy of the compound described above in example 5 was evaluated using a collagen-induced arthritis model. Briefly, syngeneic 8-week-old female Louvain rats were immunized intradermally under ether anesthesia on Day 0 with 0.5 mg chick collagen II (Genzyme, Boston, Mass.) solubilized in 0.1M acetic acid and emulsified in Incomplete Freund's Adjuvant (Difco, Detroit, Mich.). Using this method, more than 90% of rats typically develop synovitis in both hind limbs 10-14 days post immunization. […] The compound of example 5 was dissolved in a combination of ethanol and distilled water. The rats were dosed commencing on day 10 post immunization as follows: (1) control group: vehicle only daily via intravenous injection (iv) (12 rats), (2) high dose group: 30 mg/kg of the compound of example 5 iv every other day (12 rats), (3) low dose group: 15 mg/kg of the compound of example 5 iv every day (12 rats) and (4) oral group: 100 mg/kg of the compound of example 5 every other day by gavage (11 rats).
Daily clinical evaluations of each paw were graded on an integer scale ranging from 0 to 4, where a score of 0 indicates a normal, unaffected limb, and 4 indicates severe joint destruction. The clinical score is the sum of the four limb scores, and has a maximum possible value of 16. Collagen induced arthritis typically develops only in the hind limbs; therefore, a score of 6 to 8 represents severe arthritis.
Radiologic evaluations of the hind limbs were performed by an investigator blinded to the treatment protocol. The score assigned to each limb was based on (1) the degree of soft tissue swelling, (2) narrowing of the space between joints, (3) degree of periosteal new bone formation and (4) the presence of erosions or ankylosis. Each limb was scored on a scale of 1 to 3, with 1 representing a normal limb and 3 representing severe joint destruction.

human tumor cell lines = test: panel of cancer cell lines, overall; assay type: cell-based; conditions: in words, summary of Table VIII
Method: The compound of example 5 was also evaluated against a panel of cancer cell lines (Alley, M. C. et al. […] Cancer Research 48: 589-601; Grever, M. R., et al. (1992) Seminars in Oncology, Vol. 19, No. 6, pp 622-638; Boyd, M. R., and Paull, K. D. (1995) Drug Development Research 34: 91-109). The human tumor cell lines of the cancer screening panel were grown in RPMI 1640 medium containing 5% fetal bovine serum and 2 mM L-glutamine. Cells were inoculated into 96 well microtiter plates in 100 μL at plating densities ranging from 5,000 to 40,000 cells/well depending on the doubling time of individual cell lines. […]
Following drug addition, the plates were incubated for an additional 48 hours at 37° C., 5% CO2, 95% air, and 100% relative humidity. […] Bound stain was subsequently solubilized with 10 mM trizma base, and the absorbance was read on an automated plate reader at a wavelength of 515 nm. […] Using the seven absorbance measurements [time zero, (Tz), control growth, (C), and test growth in the presence of drug at the five concentration levels (Ti)], the percentage growth was calculated at each of the drug concentrations levels.
Percentage growth inhibition was calculated as: [(Ti−Tz)/(C−Tz)]×100 for concentrations for which Ti>/=Tz [(Ti−Tz)/Tz]×100 for concentrations for which Ti<Tz. […]

[2] = stability in liver microsomes; assay type: in vitro ADME, rat; conditions: male, rat, liver microsomes, pH 7.4, male rat liver microsomes 0.5 mg/mL, NADPH regenerating system
Method: The stability of the angiogenesis inhibitor compounds in liver microsomes was also tested. The test angiogenesis inhibitor compound at a concentration of 3 μM was incubated with male rat liver microsomes (0.5 mg/mL protein) in the presence of a NADPH regenerating system (1 mM NADP, 10 mM G6P, 1 U/mL G6PdH2, 3 mM MgCl2 ) in 100 mM Phosphate buffer at pH 7.4 at 37° C. Incubations were performed in the presence and absence of 1 μM epoxide hydrolase (EH) inhibitor N-cyclohexyl-N′-(3-phenylpropyl)urea (M. Morisseau et al. (1999) PNAS 96:8849-54) and quantitative analysis performed using LC/MS/MS.
(§1) The parent compound remaining (relative to time 0) in the incubation mixture was plotted as a function of time; a first order exponential equation was fit to the observed data, and the elimination half-lives associated with the disappearance of the test compound were determined.

[3] = plasma stability in human plasma; assay type: in vitro ADME; conditions: human
Method: The plasma stability of the angiogenesis inhibitor compounds of the invention was also tested in human plasma at 37° C. (at a 20 μM concentration of the angiogenesis inhibitor compound). The matrix minus the test angiogenesis inhibitor compound was equilibrated at 37° C. for 3 minutes. The assay was initiated by addition of the test compound, and the reaction mixture was incubated in a shaking water bath at 37° C. […] The supernatant was analysed by Liquid Chromatography/Mass spectrometry (LC/MS) using a four point standard curve to obtain percent recovery.
as §1, with “test angiogenesis inhibitor” for “test”

For CO[C@@H]1[C@H](OC(=O)N[C@@H](C(N)=O)C(C)C)CC[C@]2(CO2)[C@H]1[C@@]1(C)O[C@@H]1CC=C(C)C [Example 5, (1-Carbamoyl-2-methyl-propyl)-carbamic acid-(3R,4S,5S,6R )-5-methoxy-4-[(2R,3R)-2-methyl-3-(3-methyl-but-2-enyl)-oxiranyl]-1-oxa-spiro[2.5]oct-6-yl ester], the “mean daily clinical score (FIG. 2)” value ([1]; each treatment group, 19 day period from day 10) was “significant therapeutic benefit”, the “mean radiological evaluation score” value ([1]; high dose group: 30 mg/kg iv every other day) was 0.6 and the “mean radiological evaluation score” value ([1]; low dose group: 15 mg/kg iv every day) was 0.6. The “mean radiological evaluation score” value ([1]; oral group: 100 mg/kg every other day by gavage) was 1.6, the “inhibitory effect on tumor cell lines” value (human tumor cell lines) was “significant inhibitory effect on a wide variety of tumor cell lines” and the half-life at 3 μM ([2]; with 1 μM EH inhibitor, read-out: T1/2 (with EH inhibitor)) was 12.1 ± 1 min. For the same compound, the half-life at 3 μM ([2]; without EH inhibitor, read-out: T1/2 (without EH inhibitor)) was 11.9 ± 1 min, the recovery at 0 min, 20 μM [3] was 100% and the recovery at 15 min, 20 μM [3] was 108%. The recovery at 30 min, 20 μM [3] was 103%, the recovery at 60 min, 20 μM [3] was 97% and the recovery at 90 min, 20 μM [3] was 129%. For the same compound, the recovery at 120 min, 20 μM [3] was 107% and the half-life at 20 μM ([3]; plasma) was ≥ 500 min.
